Reference: US10030027B2, “Soluble guanylate cyclase stimulators” (MERCK SHARP & DOHME CORP., priority 2015, dated 2018)
pEC50, pKi: −log10 of the molar value.

Columns and labels:
[1] = molecular target: human recombinant sGC enzyme (Homo sapiens (Human), UniProt Q02108+Q02153); experiment: Size Exclusion Chromatography (SEC) competition binding assay using [3H] Ex-77B as the radioligand; settings: [3H] Ex-77B radioligand, 24 hours at 37° C.
Outline: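 Recombinant human sGC binding measured by competition against tritiated Ex-77B radioligand, with non-specific binding defined by 1 μM unlabeled Ex-77B.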

sGC α1/β1 heterodimer = sGC α1/β1 heterodimer (Homo sapiens (Human), UniProt Q02108+Q02153); experiment: Cell-based sGC functional assay (cyclic GMP assay for sGC activator: CASA assay); parameters: % Activation: concentration or dose not given beside the values; settings: CHO-K1/sGC cells; for Emax: CHO-K1, activity expressed as percentage of compound A (standard), read-out: % Activation; for pEC50: inflection point, 4P fit, read-out: IP; for % Activation: activity expressed as percentage of compound A (standard)
Outline: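 CHO-K1 cells stably expressing human sGC α1/β1 were pre-incubated 30 min at 25° C with or without 1 μM DETA-NO, then exposed to compound for 1 hr at 37° C with 0.5 mM IBMX and 2.5% DMSO final. Intracellular cGMP was measured by HTRF, expressed as % of reference sGC-HDA maximum; inflection point and maximum fold induction came from 4-parameter fits.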

Row | Structure (SMILES) | pKi [1] | Emax (sGC α1/β1 heterodimer) [%] | pEC50 (sGC α1/β1 heterodimer) | % Activation (sGC α1/β1 heterodimer) [%]
1 | C[C@@]1(c2ccc(CCC(=O)O)cc2)C(=O)Nc2nc(-c3nn(CCCC(F)(F)F)c4cc(Cl)ccc34)nc(N)c21 [Example 41B, (S)-3-(4-{4-amino-2-[6-chloro-1-(4,4,4-trifluorobutyl)-1H-indazol-3-yl]-5-methyl-6-oxo-6,7-dihydro-5H-pyrrolo[2,3-d]pyrimidin-5-yl}phenyl)propanoic acid] | 9.14 | 85 | 6.11 | 
2 | CC(C)(Cc1ccc(C2(C)C(=O)Nc3nc(-c4nn(Cc5ccccc5F)c5cc(Cl)ccc45)nc(N)c32)nc1)C(=O)O (centres unmarked) [Example 131B, 3-(6-{4-amino-2-[6-chloro-1-(2-fluorobenzyl)-1H-indazol-3-yl]-5-methyl-6-oxo-6,7-dihydro-5H-pyrrolo[2,3-d]pyrimidin-5-yl}pyridin-3-yl)-2,2-dimethylpropanoic acid] | 9.90 | 120 | 5.97 | 
3 | CC(C)(Cc1csc([C@]2(C)C(=O)Nc3nc(-c4nn(CC5CCCCO5)c5cc(F)ccc45)nc(N)c32)n1)C(=O)O (single isomer, unassigned) [Example 133AB] | 9.44 |  | 6.15 | 111.4
4 | CC(C)(Cc1csc([C@]2(C)C(=O)Nc3nc(-c4nn(CC5CCCCO5)c5cc(F)ccc45)nc(N)c32)n1)C(=O)O (single isomer, unassigned) [Example 133AA] | 9.29 | 104 | 6.18 | 
5 | CC(C)(Cc1csc([C@]2(C)C(=O)Nc3nc(-c4nn(Cc5ccc(F)cc5F)c5cc(Cl)ccc45)nc(N)c32)n1)C(=O)O [Example 179A, (S)-3-(2-{4-amino-2-[6-chloro-1-(2,4-difluorobenzyl)-1H-indazol-3-yl]-5-methyl-6-oxo-6,7-dihydro-5H-pyrrolo[2,3-d]pyrimidin-5-yl}-1,3-thiazol-4-yl)-2,2-dimethyl-propanoic acid] | 9.84 | 118 | 6.58 | 
6 | CC1(c2ccc(CCCC(=O)O)cc2)C(=O)Nc2nc(-c3nn(Cc4ccccc4F)c4ncccc34)nc(N)c21 (centres unmarked) [Example 113B, 4-(4-{4-Amino-2-[1-(2-fluorobenzyl)-1H-pyrazolo[3,4-b]pyridin-3-yl]-5-methyl-6-oxo-6,7-dihydro-5H-pyrrolo[2,3-d]pyrimidin-5-yl}phenyl)butanoic acid] | 10.19 | 89 | 6.25 | 
7 | CC1CCC(Cn2nc(-c3nc(N)c4c(n3)NC(=O)C4(C)c3nc(CC(C)(C)C(=O)O)co3)c3ccc(Cl)cc32)CC1 (single isomer, unassigned) [Example 132AB, 3-{2-[4-amino-2-{6-chloro-1-[4-methylcyclohexylmethyl]-1H-indazol-3-yl}-5-methyl-6-oxo-6,7-dihydro-5H-pyrrolo[2,3-d]pyrimidin-5-yl]-1,3-oxazol-4-yl}-2,2-dimethylpropanoic acid] | 10.13 |  | 7.05 | 109.2
8 | CC1(c2nc(-c3ccc(C(=O)O)cc3)co2)C(=O)Nc2nc(-c3nn(Cc4ccccc4F)c4cc(Cl)ccc34)nc(N)c21 (centres unmarked) [Example 164A, 4-(2-{4-amino-2-[6-chloro-1-(2-fluorobenzyl)-1H-indazol-3-yl]-5-methyl-6-oxo-6,7-dihydro-5H-pyrrolo[2,3-d]pyrimidin-5-yl}-1,3-oxazol-4-yl) benzoic acid] | 10.00 | 127 | 6.36 | 
9 | CC1(c2cn(CC3(C(=O)O)CC3)nn2)C(=O)Nc2nc(-c3nn(CCC(F)(F)C(F)(F)F)c4cc(Cl)ccc34)nc(N)c21 (centres unmarked) [Example 32B, 1-[(4-{4-amino-2-[6-chloro-1-(3,3,4,4,4-pentafluorobutyl)-1H-indazol-3-yl]-5-methyl-6-oxo-6,7-dihydro-5H-pyrrolo[2,3-d]pyrimidin-5-yl}-1H-1,2,3-triazol-1-yl)methyl]cyclopropanecarboxylic acid] | 8.77 | 79 | 6.35 | 
10 | CC(C)(Cc1coc(C2(C)C(=O)Nc3nc(-c4nn(CC5CCCCO5)c5cc(F)ccc45)nc(N)c32)n1)C(=O)O (single isomer, unassigned) [Example 134AA, 3-{2-[4-amino-2-{6-fluoro-1-[tetrahydro-2H-pyran-2-ylmethyl]-1H-indazol-3-yl}-5-methyl-6-oxo-6,7-dihydro-5H-pyrrolo[2,3-d]pyrimidin-5-yl]-1,3-oxazol-4-yl}-2,2-dimethylpropanoic acid] | 9.49 | 104 | 6.09 | 
11 | CC1(c2ccc(-c3nn[nH]n3)cc2)C(=O)Nc2nc(-c3nn(Cc4ccccc4F)c4cc(F)ccc34)nc(N)c21 (centres unmarked) [Example 250B, 4-amino-2-[6-fluoro-1-(2-fluorobenzyl)-1H-indazol-3-yl]-5-methyl-5-[4-(1H-tetrazol-5-yl)phenyl]-5,7-dihydro-6H-pyrrolo[2,3-d] pyrimidin-6-one] | 9.97 | 102 | 5.77 | 
12 | CC(C)(Cc1csc([C@]2(C)C(=O)Nc3nc(-c4nn(CCC(F)(F)C(F)(F)F)c5ncccc45)nc(N)c32)n1)C(=O)NO [Example 97B, (S)-3-(2-{4-Amino-5-methyl-6-oxo-2-[1-(3,3,4,4,4-pentafluorobutyl)-1H-pyrazolo[3,4-b]pyridin-3-yl]-6,7-dihydro-5H-pyrrolo[2,3-d]pyrimidin-5-yl}-1,3-thiazol-4-yl)-N-hydroxy-2,2-dimethylpropanamide] | 9.10 | 122 | 5.94 | 
13 | CC(C)(Cc1coc(C2(C)C(=O)Nc3nc(-c4nn(Cc5ccc(F)cc5F)c5cc(Cl)ccc45)nc(N)c32)n1)C(=O)O (centres unmarked) [Example 178A, 3-(2-{4-amino-2-[6-chloro-1-(2,4-difluorobenzyl)-1H-indazol-3-yl]-5-methyl-6-oxo-6,7-dihydro-5H-pyrrolo[2,3-d]pyrimidin-5-yl}-1,3-oxazol-4-yl)-2,2-dimethyl-propanoic acid] | 9.94 | 124 | 6.37 | 
14 | CC(C)(Cc1csc([C@]2(C)C(=O)Nc3nc(-c4nn(Cc5ccccc5F)c5ccccc45)nc(N)c32)n1)c1nn[nH]n1 (single isomer, unassigned) [Example 236A] | 9.80 | 110 | 6.32 | 
15 | C[C@@]1(c2ccc(CCC(=O)NS(C)(=O)=O)cc2)C(=O)Nc2nc(-c3nn(Cc4ccccc4F)c4cc(Cl)ccc34)nc(N)c21 [Example 259B, (S)-3-(4-{4-Amino-2-[6-chloro-1-(2-fluorobenzyl)-1H-indazol-3-yl]-5-methyl-6-oxo-6,7-dihydro-5H-pyrrolo[2,3-d]pyrimidin-5-yl}phenyl)-N-(methylsulfonyl)propanamide] | 9.95 | 116 | 6.25 | 
16 | CC1(c2ccc(CCc3nn[nH]n3)cn2)C(=O)Nc2nc(-c3nn(Cc4ccccc4F)c4ccccc34)nc(N)c21 (single isomer, unassigned) [Example 246A, 5-{5-[2-(2H-tetrazol-5-yl)ethyl]pyridin-2-yl}-4-amino-2-[1-(2-fluoro-benzyl)-1H-indazol-3-yl]-5-methyl-5,7-dihydro-6H-pyrrolo[2,3-d] pyrimidin-6-one] | 9.66 |  | 5.15 | 
17 | Cc1ccnc(Cn2nc(-c3nc(N)c4c(n3)NC(=O)C4(C)c3nc(CC(C)(C)C(=O)O)co3)c3ccc(Cl)cc32)c1F (centres unmarked) [Example 215A, 3-(2-{4-amino-2-[6-chloro-1-((3-fluoro-4-methyl-pyridin-2-yl)methyl)-1H-indazol-3-yl]-5-methyl-6-oxo-6,7-dihydro-5H-pyrrolo[2,3-d]pyrimidin-5-yl} 1,3-oxazol-4-yl)-2,2-dimethyl-propanoic acid] | 9.72 | 119 | 5.43 | 
18 | CC1(c2cccc(C(=O)O)c2)C(=O)Nc2nc(-c3nn(Cc4ccccc4F)c4cc(Cl)ccc34)nc(N)c21 (centres unmarked) [Example 169B, 3-{4-amino-2-[6-chloro-1-(2-fluorobenzyl)-1H-indazol-3-yl]-5-methyl-6-oxo-6,7-dihydro-5H-pyrrolo[2,3-d]pyrimidin-5-yl} benzoic acid] | 9.98 | 90.3 | 6.80 | 
19 | CC1(c2ccc(CCC(=O)O)c(Br)c2)C(=O)Nc2nc(-c3nn(CCC(F)(F)C(F)(F)F)c4cc(Cl)ccc34)nc(N)c21 (centres unmarked) [Example 4B, 3-(4-{4-amino-2-[6-chloro-1-(3,3,4,4,4-pentafluoro-butyl)-1H-indazol-3-yl]-5-methyl-6-oxo-6,7-dihydro-5H-pyrrolo[2,3-d]pyrimidin-5-yl}-2-bromophenyl)propanoic acid] | 9.41 | 126 | 6.53 | 
20 | CC(C)(Cc1csc([C@]2(C)C(=O)Nc3nc(-c4nn(CCCC(F)(F)F)c5ncccc45)nc(N)c32)n1)C(=O)O [Example 87B, (S)-3-(2-{4-amino-5-methyl-6-oxo-2-[1-(4,4,4-trifluorobutyl)-1H-pyrazolo[3,4-b]pyridin-3-yl]-6,7-dihydro-5H-pyrrolo[2,3-d]pyrimidin-5-yl}-1,3-thiazol-4-yl)-2,2-dimethylpropanoic acid] | 9.11 | 97 | 6.26 | 
21 | CC1CCC(Cn2nc(-c3nc(N)c4c(n3)NC(=O)C4(C)c3nc(CC(C)(C)C(=O)O)co3)c3ccccc32)CC1 (single isomer, unassigned) [Example 231AA, 3-{2-[4-amino-5-methyl-2-{1-[-4-methylcyclo-hexylmethyl]-1H-indazol-3-yl}-6-oxo-6,7-dihydro-5H-pyrrolo[2,3-d]pyrimidin-5-yl]-1,3-oxazol-4-yl}-2,2-dimethyl-propanoic acid] | 10.04 |  | 6.95 | 148.2
